# Results from US20200123127A1, “REMOVAL OF SENESCENCE-ASSOCIATED MACROPHAGES” (EVERON BIOSCIENCES, INC., priority 2016, published 2020).
# Assays:
# SAMs = test: SAM viability (CyQuant Direct / resazurin); type: cell-based, mouse; details: 72 hour; presence or absence of IL-4 10 ng/mL
# Protocol: (§1) FIG. 8. Immunomodulatory regulation of p16(Ink4a) and SAβG in macrophages. Peritoneal lavage cells elicited by alginate-encapsulated SCs from p16^Ink4a/Luc mice were treated ex vivo with immunomodulatory agents for up to 72 hours. (A) mRNA expression of p16(Ink4a) and β-galactosidase (Glb1) in macrophages (relative to B2m expression) with or without LPS stimulation for 72 hours analyzed via qRT-PCR, normalized to non-treated controls. (B) Microphotograph of SAβG-stained adherence-selected macrophages with or without stimulation with LPS (1 ng/mL) for 72 hours (10× objective). (C&D) Kinetics of p16(Ink4a) promoter-dependent luciferase activity per cell with or without LPS stimulation (C) or IL-4 stimulation (D), normalized to activity from non-treated cells at time zero. Results are shown as the mean±standard deviation for at least 3 experiments. Statistical significance with respect to non-treated control at time zero is indicated. (E) Luciferase activity and (3-galactosidase activity (via 4-MUG hydrolysis) from proteose peptone-elicited lavage cells following stimulation with IL-4 (20 ng/mL) for 72 hours, normalized to non-treated controls. (F) Viability following 72 hour dose-response to JAK1/2 inhibitor Ruxolitinib in the presence or absence of IL-4 (10 ng/mL) stimulation, measured by CyQuant Direct DNA-based viability assay. Viability normalized to respective controls lacking Ruxolitinib. (G&H) Dose-response of STAT6 inhibitor AS1517499 against luciferase activity (G) and viability via CyQuant Direct assay (H) following 72 hour treatment in the presence and absence of IL-4 (10 ng/mL). Results normalized to respective controls (with or without IL-4) lacking STAT6 inhibitor. Statistical significance is calculated with respect to the difference between IL-4 stimulated and non-stimulated cells at each concentration of STAT6 inhibitor. (I) Relative luciferase activity per cell following repolarization with M1- and M2-inducing agents. Macrophages were left non-treated (NT) or treated with either LPS (1 ng/ml) or IL-4 (20 ng/ml) for 72 hours (days 1-3), as indicated. For each treatment set, samples were collected at 72 hours (no further treatment; days 4-6=x). Alternatively, cells were washed and placed in fresh medium (−), medium containing LPS (1 ng/mL) and IFN-γ (10 ng/mL), or medium containing IL-4 (20 ng/mL) and IL-13 (10 ng/mL) and incubated for an additional 72 hours prior to sample collection (as indicated for days 4-6). Luciferase activity is expressed as the percent activity per cell relative to non-treated (NT) controls after the first 72 hours.
# FIG. 10. Elevated p16(Ink4a) and β-galactosidase is regulated by immunomodulatory agents in macrophages, but not in mesenchymal SCs. Primary cultures of adipose-derived mesenchymal stromal cells (AdMSC) isolated from p16^Ink4a/Luc mice were irradiated (20 Gy) and cultured for 10 days for senescence induction. Mock irradiated cells were used as a proliferating cell control. Response of senescent and proliferating AdMSCs to immunomodulatory agents were compared to that of peritoneal lavage cells elicited by our alginate bead model. A-D) Dose-response curves of LPS (top panels: […]) and Poly(I:C) (bottom panels: C&D) on p16(Ink4a) promoter-dependent luciferase activity (left panels: A&C) and beta-galactosidase activity measured via 4-MUG hydrolysis (right panels: B&D) after 72 hr treatment. […]
# FIG. 13. […] SAM viability was determined using the resazurin cell viability assay (Res). […]
# [1] = test system: p16(Ink4a) expression in SAMs; test: p16(Ink4a) promoter-dependent luciferase activity in alginate bead-elicited macrophages (SAMs) ex vivo; type: cell-based, mouse; details: for IL-4-dependent increase in luciferase activity / p16(Ink4a) expression: IL-4 10 ng/mL, 72 hour; for Modulation of p16(Ink4a): SAMs: SAMs from NDF alginate beads, dose-response testing
# Protocol: FIG. 7. Immunomodulatory regulation of p16(Ink4a) and SAβG in macrophages. Peritoneal lavage cells elicited by alginate-encapsulated SCs from p16^Ink4a/Luc mice were treated ex vivo with immunomodulatory agents for 72 hours. A) p16 promoter-dependent luciferase activity (black bars) and […] activity (via 4-MUG hydrolysis) (gray bars) were measured following treatment with M1- and M2-polarizing stimuli: LPS at 1 ng/mL, IFN-γ at 10 ng/mL, LPS/IFN-γ co-treatment, Poly(I:C) at 10 μg/mL, IFN-α at 100 U/mL, IL-4 at 20 ng/mL, IL-13 at 10 ng/ml, and IL-4/IL-13 co-treatment. Results are shown as the mean±standard deviation for at least 3 independent experiments, with statistical significance between treated compared to non-treated samples depicted. B) Dose-dependent response of JAK1/2 inhibitor Ruxolitinib on luciferase activity in elicited macrophages in the presence (gray bars) or absence (black bars) of IL-4 (10 ng/mL) stimulation. Enzyme activities are expressed as the percent activity relative to non-treated (NT) controls per cell. Statistical significance between IL-4 stimulated and non-stimulated cells at each concentration of ruxolitinib is shown.
# as §1
# Luciferase activity of cell lysates was accessed using Bright-Glo™ Luciferase Assay System (Promega; Madison, Wis.) according to manufacturer's instructions with minor modifications. […]
# [2] = test system: p16(Ink4a) in mLF and mVAT fibroblasts; test: Modulation of p16(Ink4a) in mouse lung and visceral adipose tissue-derived fibroblasts; type: cell-based; details: for Modulation of p16(Ink4a): mLF and mVAT Senescent: 20Gy irradiation for senescence induction; for Modulation of p16(Ink4a): mLF and mVAT Proliferating: without irradiation
# Description: We next sought to determine whether immunomodulatory agents, and other small molecules, were capable of selectively modulating p16(Ink4a) expression in SAMs by comparing their effects on p16 expression in SAMs to that of mouse lung fibroblasts (mLF) and mouse visceral adipose tissue-derived fibroblasts (mVAT). […] Immunomodulatory agents cause little to no change in p16 expression in fibroblasts. For example, mouse fibroblasts are reported to respond to LPS and IL-4 (expressing TLR4 and IL-4R, respectively), yet these agents are unable to modulate p16 in fibroblasts.
# [3] = test system: chronologically aging mice; test: Survival and frailty index of chronologically aging mice; type: in vivo, mouse
# Protocol: FIG. 11. OT-82 effects on survival and frailty index of old mice. (A) Male and female mice were treated with OT-82 or with vehicle alone as a negative control. Survival was measured over the course of six treatments.
# FIG. 12. Effects of asenins TA-3899 and TA-4812 on survival and frailty index of old mice. Results are provided on a background of FI of mice of the similar age, aged normally without any treatments (black color). Difference between FI of males receiving 3899 and intact mice is statistically significant (p=0.02).
# Frailty Index (FI) was determined for individual mice as described previously (Antoch et al. Aging. 2017; 9: 1-12) using a 26 week-old group as a “young mouse” reference. For each mouse, various parameters were measured. These parameters include non-invasive measurements, including age, body weight, grip strength, diastolic blood pressure, and tail blood flow. Additional blood chemistry measurements were also determined, including white blood cell count, neutrophil count, neutrophil percentage, lymphocyte percentage, monocyte percentage, eosinophil percentage, red blood cell count, hemoglobin, hematocrit, mean corpuscular volume, mean corpuscular hemoglobin, mean corpuscular hemoglobin concentration, platelet count, and mean platelet volume. For each parameter mean value and standard deviation were calculated. Animals differing by more than one standard deviation (STDEV) from mean value in any single parameter were excluded from the reference group. Values for each measured parameter were compared with corresponding values for the reference group and assigned a score. The number of deficits an individual mouse expressed was calculated as a ratio of total number of parameters measured and this value is referred to as the frailty index.
# Asenins TA-3899 and TA-4812 were evaluated for their effects on survival and frailty index in a model of chronologic aging mice. Treatment lasted for 20 weeks (weeks 77-97 of age). […] Frailty index of males was measured at week 109.
IL-4-dependent increase in luciferase activity / p16(Ink4a) expression [1],SMILES,viability of macrophages (CyQuant Direct) (SAMs),Modulation of p16(Ink4a): mLF and mVAT Senescent [2],Modulation of p16(Ink4a): mLF and mVAT Proliferating [2],"survival rates vs control groups ([3]; OT-82: after 6 courses, 111 weeks of age, asenins: treated weeks 77-97, at 112 weeks of age)","FI of males compared to intact animals ([3]; treatment weeks 77-97 of age, measured at week 109)",Modulation of p16(Ink4a): SAMs [1]
abrogated,"NC(=O)c1cnc(NCCc2ccc(O)c(Cl)c2)nc1NCc1ccccc1 [AS1517499, reference compound]",without affecting viability,no change,no change,,,
,"CCOC(=O)c1sc(SCc2ccccc2)c2c1CN(c1ccc(OC)cc1)C/C2=N\O [Example A1.11, Ethyl 1-(benzylthio)-7-(hydroxyimino)-5-(4-methoxyphenyl)-4,5,6,7-tetrahydro-thieno[3,4-c]pyridine-3-carboxylate]",,no change,no change,no statistical significance,statistically significant decrease,decrease
abrogates,"N#CCNC(=O)c1ccc(-c2ccnc(Nc3ccc(N4CCOCC4)cc3)n2)cc1 [CYT387, momelotinib, reference compound]",,no change,no change,,,
,CN(C)C(=N)N=C(N)N [Metformin],,,,,,decrease
